In ChEMBL document CHEMBL4507301 (2021):

Key:
[1] = molecular target: Tyrosine-protein kinase TXK (Homo sapiens) (UniProt P42681); settings: Compound concentration 1000.0 nM
[2] = molecular target: cAMP-dependent protein kinase catalytic subunit beta (Homo sapiens) (UniProt P22694); settings: Compound concentration 1000.0 nM
[3] = molecular target: Rho-associated protein kinase 2 (Homo sapiens) (UniProt O75116); settings: Compound concentration 1000.0 nM
[4] = molecular target: Cyclin-dependent kinase-like 1 (Homo sapiens) (UniProt Q00532); settings: Compound concentration 1000.0 nM
[5] = molecular target: Serine/threonine-protein kinase PLK2 (Homo sapiens) (UniProt Q9NYY3); settings: Compound concentration 1000.0 nM
[6] = test system: Epidermal growth factor receptor (Homo sapiens), P00533 [T790M]; settings: Compound concentration 1000.0 nM
[7] = molecular target: Dual specificity mitogen-activated protein kinase kinase 1 (Homo sapiens) (UniProt Q02750); settings: Compound concentration 1000.0 nM
[8] = molecular target: Interleukin-1 receptor-associated kinase 1 (Homo sapiens) (UniProt P51617); settings: Compound concentration 1000.0 nM
[9] = molecular target: Serine/threonine-protein kinase 24 (Homo sapiens) (UniProt Q9Y6E0); settings: Compound concentration 1000.0 nM
[10] = molecular target: Serine/threonine-protein kinase 38-like (Homo sapiens) (UniProt Q9Y2H1); settings: Compound concentration 1000.0 nM
Chain of Serine/threonine-protein kinase 38-like (Homo sapiens) (Q9Y2H1 2-464 limits assumed): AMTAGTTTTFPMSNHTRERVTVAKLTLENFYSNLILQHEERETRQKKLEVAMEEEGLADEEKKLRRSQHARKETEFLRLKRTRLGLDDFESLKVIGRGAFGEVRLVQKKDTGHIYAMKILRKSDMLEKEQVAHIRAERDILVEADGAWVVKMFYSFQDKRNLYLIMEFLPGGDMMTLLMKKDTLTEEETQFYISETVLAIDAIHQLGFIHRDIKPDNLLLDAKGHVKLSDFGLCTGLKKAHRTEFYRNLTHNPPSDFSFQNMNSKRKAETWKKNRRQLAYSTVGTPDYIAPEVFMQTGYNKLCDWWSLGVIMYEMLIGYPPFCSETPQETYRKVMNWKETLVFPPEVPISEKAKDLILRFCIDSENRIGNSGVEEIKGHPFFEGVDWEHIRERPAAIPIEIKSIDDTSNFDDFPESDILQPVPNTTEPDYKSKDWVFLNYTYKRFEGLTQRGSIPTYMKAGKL

[11] = molecular target: Calcium/calmodulin-dependent protein kinase type IV (Homo sapiens) (UniProt Q16566); settings: Compound concentration 1000.0 nM
[12] = molecular target: Dual specificity protein kinase CLK4 (Homo sapiens) (UniProt Q9HAZ1); settings: Compound concentration 1000.0 nM
[13] = molecular target: STE20-like serine/threonine-protein kinase (Homo sapiens) (UniProt Q9H2G2); settings: Compound concentration 1000.0 nM
[14] = test system: Mast/stem cell growth factor receptor Kit (Homo sapiens), P10721 [L576P]; settings: Compound concentration 1000.0 nM
Chain of Mast/stem cell growth factor receptor Kit (Homo sapiens), P10721 [L576P] (P10721 whole entry L576P): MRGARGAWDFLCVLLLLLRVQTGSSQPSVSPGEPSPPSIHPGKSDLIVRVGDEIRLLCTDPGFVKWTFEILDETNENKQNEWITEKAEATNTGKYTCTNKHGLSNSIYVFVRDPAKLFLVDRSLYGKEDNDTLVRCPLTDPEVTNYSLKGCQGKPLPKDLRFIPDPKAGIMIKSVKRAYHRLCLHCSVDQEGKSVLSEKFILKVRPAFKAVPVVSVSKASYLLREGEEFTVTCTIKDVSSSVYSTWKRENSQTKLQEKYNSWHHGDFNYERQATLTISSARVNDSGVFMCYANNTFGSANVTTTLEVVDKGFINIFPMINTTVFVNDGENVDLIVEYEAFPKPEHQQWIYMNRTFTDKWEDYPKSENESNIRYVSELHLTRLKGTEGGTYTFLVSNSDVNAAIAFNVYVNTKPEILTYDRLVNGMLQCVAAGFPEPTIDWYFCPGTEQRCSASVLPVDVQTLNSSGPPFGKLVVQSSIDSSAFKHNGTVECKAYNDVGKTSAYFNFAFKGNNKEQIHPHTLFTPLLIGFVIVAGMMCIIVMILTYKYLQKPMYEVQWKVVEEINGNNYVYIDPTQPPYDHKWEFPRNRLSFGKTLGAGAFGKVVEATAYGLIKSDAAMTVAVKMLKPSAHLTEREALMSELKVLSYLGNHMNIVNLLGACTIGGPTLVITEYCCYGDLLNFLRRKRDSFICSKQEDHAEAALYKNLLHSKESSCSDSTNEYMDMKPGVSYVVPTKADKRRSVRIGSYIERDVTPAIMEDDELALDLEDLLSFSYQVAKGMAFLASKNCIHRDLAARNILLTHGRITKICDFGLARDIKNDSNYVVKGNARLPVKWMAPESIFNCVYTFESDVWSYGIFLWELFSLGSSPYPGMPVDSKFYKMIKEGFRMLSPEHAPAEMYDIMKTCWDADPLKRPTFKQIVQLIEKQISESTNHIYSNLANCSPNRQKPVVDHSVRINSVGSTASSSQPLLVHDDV

[15] = molecular target: Dual specificity protein kinase CLK1 (Homo sapiens) (UniProt P49759); settings: Compound concentration 1000.0 nM
[16] = molecular target: Protein kinase C delta type (Homo sapiens) (UniProt Q05655); settings: Compound concentration 1000.0 nM
[17] = molecular target: Insulin receptor (Homo sapiens) (UniProt P06213); settings: Compound concentration 1000.0 nM
[18] = molecular target: Ribosomal protein S6 kinase alpha-2 (Homo sapiens) (UniProt Q15349); settings: Compound concentration 1000.0 nM
[19] = molecular target: Protein kinase C eta type (Homo sapiens) (UniProt P24723); settings: Compound concentration 1000.0 nM
Chain of Protein kinase C eta type (Homo sapiens) (P24723 whole entry): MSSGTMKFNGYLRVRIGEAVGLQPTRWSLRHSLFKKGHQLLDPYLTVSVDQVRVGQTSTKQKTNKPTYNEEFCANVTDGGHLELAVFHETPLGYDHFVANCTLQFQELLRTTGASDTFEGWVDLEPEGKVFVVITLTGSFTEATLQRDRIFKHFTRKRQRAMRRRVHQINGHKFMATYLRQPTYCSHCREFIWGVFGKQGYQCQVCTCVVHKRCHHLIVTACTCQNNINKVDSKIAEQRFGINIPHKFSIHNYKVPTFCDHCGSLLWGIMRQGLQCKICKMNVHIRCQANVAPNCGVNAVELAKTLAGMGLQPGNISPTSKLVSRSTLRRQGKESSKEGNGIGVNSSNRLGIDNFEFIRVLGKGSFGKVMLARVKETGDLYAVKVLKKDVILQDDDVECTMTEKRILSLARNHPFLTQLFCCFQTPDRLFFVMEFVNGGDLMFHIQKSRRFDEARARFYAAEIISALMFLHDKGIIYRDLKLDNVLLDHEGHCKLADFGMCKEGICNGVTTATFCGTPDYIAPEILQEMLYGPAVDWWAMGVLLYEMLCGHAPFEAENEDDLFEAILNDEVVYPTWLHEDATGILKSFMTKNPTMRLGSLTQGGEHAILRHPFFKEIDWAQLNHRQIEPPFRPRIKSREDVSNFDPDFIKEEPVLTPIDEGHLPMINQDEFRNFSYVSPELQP

[20] = molecular target: Serine/threonine-protein kinase PLK4 (Homo sapiens) (UniProt O00444); settings: Compound concentration 1000.0 nM
[21] = molecular target: Serine/threonine-protein kinase tousled-like 2 (Homo sapiens) (UniProt Q86UE8); settings: Compound concentration 1000.0 nM
[22] = molecular target: Tyrosine-protein kinase Fer (Homo sapiens) (UniProt P16591); settings: Compound concentration 1000.0 nM
Chain of Tyrosine-protein kinase Fer (Homo sapiens) (P16591 whole entry, looked up): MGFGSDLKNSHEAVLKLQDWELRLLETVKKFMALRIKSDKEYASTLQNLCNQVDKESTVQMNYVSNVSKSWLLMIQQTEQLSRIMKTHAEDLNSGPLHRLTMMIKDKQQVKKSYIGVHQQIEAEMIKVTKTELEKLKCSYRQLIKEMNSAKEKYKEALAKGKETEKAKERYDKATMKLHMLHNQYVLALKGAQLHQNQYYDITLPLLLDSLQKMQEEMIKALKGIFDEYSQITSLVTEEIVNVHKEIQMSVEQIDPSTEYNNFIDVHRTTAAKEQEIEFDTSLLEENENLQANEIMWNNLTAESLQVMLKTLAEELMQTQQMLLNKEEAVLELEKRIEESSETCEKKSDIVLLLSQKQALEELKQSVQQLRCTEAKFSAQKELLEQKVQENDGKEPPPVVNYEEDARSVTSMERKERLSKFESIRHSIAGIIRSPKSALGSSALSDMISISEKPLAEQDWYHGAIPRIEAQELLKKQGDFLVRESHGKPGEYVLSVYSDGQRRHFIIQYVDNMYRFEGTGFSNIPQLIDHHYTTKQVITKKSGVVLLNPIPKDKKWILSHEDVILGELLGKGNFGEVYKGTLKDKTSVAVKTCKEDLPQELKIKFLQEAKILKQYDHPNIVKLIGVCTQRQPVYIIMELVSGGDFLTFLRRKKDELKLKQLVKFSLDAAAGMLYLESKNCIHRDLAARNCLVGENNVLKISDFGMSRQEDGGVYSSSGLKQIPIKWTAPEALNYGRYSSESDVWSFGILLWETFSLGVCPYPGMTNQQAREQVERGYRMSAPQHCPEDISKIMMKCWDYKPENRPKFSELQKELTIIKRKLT

[23] = molecular target: Serine/threonine-protein kinase OSR1 (Homo sapiens) (UniProt O95747); settings: Compound concentration 1000.0 nM
[24] = molecular target: Activated CDC42 kinase 1 (Homo sapiens) (UniProt Q07912); settings: Compound concentration 1000.0 nM
[25] = test system: Epidermal growth factor receptor (Homo sapiens), P00533 [G719C]; settings: Compound concentration 1000.0 nM
[26] = molecular target: Casein kinase I isoform gamma-1 (Homo sapiens) (UniProt Q9HCP0); settings: Compound concentration 1000.0 nM
Chain of Casein kinase I isoform gamma-1 (Homo sapiens) (Q9HCP0 whole entry, looked up, canonical isoform): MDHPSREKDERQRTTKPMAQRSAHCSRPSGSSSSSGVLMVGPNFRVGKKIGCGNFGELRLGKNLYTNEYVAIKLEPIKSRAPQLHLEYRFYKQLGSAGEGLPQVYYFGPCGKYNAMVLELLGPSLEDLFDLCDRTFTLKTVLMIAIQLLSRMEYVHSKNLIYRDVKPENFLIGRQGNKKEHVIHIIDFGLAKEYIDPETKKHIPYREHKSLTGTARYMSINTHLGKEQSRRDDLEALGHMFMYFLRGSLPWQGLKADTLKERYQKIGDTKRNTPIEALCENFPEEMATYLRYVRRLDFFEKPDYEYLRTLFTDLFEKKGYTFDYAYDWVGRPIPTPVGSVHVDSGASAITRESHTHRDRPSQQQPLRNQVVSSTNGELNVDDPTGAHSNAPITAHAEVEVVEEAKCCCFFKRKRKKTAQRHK

[27] = molecular target: 5-hydroxytryptamine receptor 1A (Homo sapiens) (UniProt P08908); settings: Compound concentration 10.0 uM
[28] = molecular target: Serine/threonine-protein kinase 17A (Homo sapiens) (UniProt Q9UEE5); settings: Compound concentration 1000.0 nM
[29] = test system: Epidermal growth factor receptor (Homo sapiens), P00533 [UNDEFINED MUTATION]; settings: Compound concentration 1000.0 nM
[30] = molecular target: Ribosomal protein S6 kinase alpha-4 (Homo sapiens) (UniProt O75676); settings: Compound concentration 1000.0 nM
[31] = molecular target: Serine/threonine-protein kinase Sgk2 (Homo sapiens) (UniProt Q9HBY8); settings: Compound concentration 1000.0 nM
[32] = test system: Tyrosine-protein kinase ABL1 (Homo sapiens), P00519 [H396P]; settings: Compound concentration 1000.0 nM
[33] = molecular target: SNF-related serine/threonine-protein kinase (Homo sapiens) (UniProt Q9NRH2); settings: Compound concentration 1000.0 nM
[34] = molecular target: Calcium/calmodulin-dependent protein kinase type 1D (Homo sapiens) (UniProt Q8IU85); settings: Compound concentration 1000.0 nM
[35] = molecular target: RAC-beta serine/threonine-protein kinase (Homo sapiens) (UniProt P31751); settings: Compound concentration 1000.0 nM
[36] = molecular target: Serine/threonine-protein kinase TAO1 (Homo sapiens) (UniProt Q7L7X3); settings: Compound concentration 1000.0 nM
[37] = molecular target: Dual specificity protein kinase CLK3 (Homo sapiens) (UniProt P49761); settings: Compound concentration 1000.0 nM
[38] = molecular target: Glycogen synthase kinase-3 alpha (Homo sapiens) (UniProt P49840); settings: Compound concentration 1000.0 nM
[39] = molecular target: Phosphatidylinositol 4,5-bisphosphate 3-kinase catalytic subunit gamma isoform (Homo sapiens) (UniProt P48736); settings: Compound concentration 1000.0 nM
[40] = molecular target: Dual specificity tyrosine-phosphorylation-regulated kinase 1B (Homo sapiens) (UniProt Q9Y463); settings: Compound concentration 1000.0 nM
[41] = test system: Tyrosine-protein kinase ABL1 (Homo sapiens), P00519 [H396P]; settings: Compound concentration 1000.0 nM; remark: listed apart in the source
[42] = molecular target: Phosphatidylinositol 4-phosphate 5-kinase type-1 alpha (Homo sapiens) (UniProt Q99755); settings: Compound concentration 1000.0 nM
Chain of Phosphatidylinositol 4-phosphate 5-kinase type-1 alpha (Homo sapiens) (Q99755 whole entry): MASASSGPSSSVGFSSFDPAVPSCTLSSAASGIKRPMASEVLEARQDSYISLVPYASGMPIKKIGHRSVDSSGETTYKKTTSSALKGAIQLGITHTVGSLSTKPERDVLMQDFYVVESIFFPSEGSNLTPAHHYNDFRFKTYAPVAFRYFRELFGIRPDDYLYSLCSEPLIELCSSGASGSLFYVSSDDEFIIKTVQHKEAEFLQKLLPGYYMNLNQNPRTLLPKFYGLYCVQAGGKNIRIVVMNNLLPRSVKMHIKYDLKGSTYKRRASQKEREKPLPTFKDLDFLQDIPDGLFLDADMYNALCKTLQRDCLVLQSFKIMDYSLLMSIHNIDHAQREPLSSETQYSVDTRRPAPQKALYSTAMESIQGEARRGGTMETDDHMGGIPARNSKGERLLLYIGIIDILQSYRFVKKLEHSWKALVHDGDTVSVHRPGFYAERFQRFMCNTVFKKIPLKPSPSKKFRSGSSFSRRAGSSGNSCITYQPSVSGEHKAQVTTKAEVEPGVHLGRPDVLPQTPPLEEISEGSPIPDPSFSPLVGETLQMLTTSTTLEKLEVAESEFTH

[43] = molecular target: cGMP-dependent protein kinase 1 (Homo sapiens) (UniProt Q13976); settings: Compound concentration 1000.0 nM
[44] = molecular target: Cyclin-dependent kinase-like 2 (Homo sapiens) (UniProt Q92772); settings: Compound concentration 1000.0 nM
Chain of Cyclin-dependent kinase-like 2 (Homo sapiens) (Q92772 whole entry, canonical isoform): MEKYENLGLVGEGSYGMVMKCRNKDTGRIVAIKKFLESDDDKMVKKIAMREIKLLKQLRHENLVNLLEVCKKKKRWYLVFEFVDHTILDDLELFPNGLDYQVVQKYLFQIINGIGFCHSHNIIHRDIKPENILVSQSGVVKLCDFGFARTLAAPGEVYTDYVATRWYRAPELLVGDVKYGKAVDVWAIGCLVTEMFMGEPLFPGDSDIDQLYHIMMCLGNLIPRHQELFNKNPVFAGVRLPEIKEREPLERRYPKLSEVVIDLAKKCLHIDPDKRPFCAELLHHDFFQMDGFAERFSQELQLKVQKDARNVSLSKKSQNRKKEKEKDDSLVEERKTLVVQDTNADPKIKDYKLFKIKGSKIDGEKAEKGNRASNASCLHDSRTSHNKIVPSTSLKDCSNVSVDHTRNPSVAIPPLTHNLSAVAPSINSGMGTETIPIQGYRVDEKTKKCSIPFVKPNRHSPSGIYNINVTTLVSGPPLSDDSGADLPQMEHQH

[45] = molecular target: Casein kinase I isoform gamma-2 (Homo sapiens) (UniProt P78368); settings: Compound concentration 1000.0 nM

Chain of Tyrosine-protein kinase TXK (Homo sapiens) (P42681 whole entry): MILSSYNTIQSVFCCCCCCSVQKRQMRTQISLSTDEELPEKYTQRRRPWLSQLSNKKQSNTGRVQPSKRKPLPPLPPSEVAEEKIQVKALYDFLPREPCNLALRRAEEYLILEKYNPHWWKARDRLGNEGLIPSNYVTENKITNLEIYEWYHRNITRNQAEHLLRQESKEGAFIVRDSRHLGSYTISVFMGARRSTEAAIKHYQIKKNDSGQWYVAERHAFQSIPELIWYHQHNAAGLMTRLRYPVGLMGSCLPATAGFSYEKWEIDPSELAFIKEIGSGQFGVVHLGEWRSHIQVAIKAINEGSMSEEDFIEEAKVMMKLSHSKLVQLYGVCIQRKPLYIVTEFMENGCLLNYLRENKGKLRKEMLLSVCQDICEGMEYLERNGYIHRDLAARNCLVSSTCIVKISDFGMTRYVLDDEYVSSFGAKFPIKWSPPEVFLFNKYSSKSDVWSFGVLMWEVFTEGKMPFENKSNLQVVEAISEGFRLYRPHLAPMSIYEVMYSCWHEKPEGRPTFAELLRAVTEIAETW

SMILES: C[C@@H](c1cccc(C#N)c1)n1cc(Cl)cc(C(N)=O)c1=N [(S)-9s]
- residual activity [1]: 68%
- residual activity [2]: 100%
- residual activity [3]: 90%
- residual activity [4]: 100%
- residual activity [5]: 97%
- residual activity [6]: 93%
- residual activity [7]: 80%
- residual activity [8]: 76%
- residual activity [9]: 100%
- residual activity [10]: 85%
- residual activity [11]: 82%
- residual activity [12]: 100%
- residual activity [13]: 88%
- residual activity [14]: 86%
- residual activity [15]: 100%
- residual activity [16]: 77%
- residual activity [17]: 100%
- residual activity [18]: 100%
- residual activity [19]: 98%
- residual activity [20]: 100%
- residual activity [21]: 100%
- residual activity [22]: 100%
- residual activity [23]: 93%
- residual activity [24]: 95%
- residual activity [25]: 100%
- residual activity [26]: 82%
- inhibition [27]: 1.02%
- residual activity [28]: 89%
- residual activity [29]: 93%
- residual activity [30]: 100%
- residual activity [31]: 91%
- residual activity [32]: 54%
- residual activity [33]: 100%
- residual activity [34]: 98%
- residual activity [35]: 93%
- residual activity [36]: 89%
- residual activity [37]: 100%
- residual activity [38]: 82%
- residual activity [39]: 100%
- residual activity [40]: 37%
- residual activity [41]: 76%
- residual activity [42]: 100%
- residual activity [43]: 100%
- residual activity [44]: 100%
- residual activity [45]: 100%

SMILES: C[C@H](c1cccc(C#N)c1)n1cc(Cl)cc(C(N)=O)c1=N [(R)-9s]
- residual activity [1]: 85%
- residual activity [2]: 98%
- residual activity [3]: 94%
- residual activity [4]: 98%
- residual activity [5]: 92%
- residual activity [6]: 80%
- residual activity [7]: 75%
- residual activity [8]: 71%
- residual activity [9]: 89%
- residual activity [10]: 68%
- residual activity [11]: 90%
- residual activity [12]: 100%
- residual activity [13]: 100%
- residual activity [14]: 93%
- residual activity [15]: 100%
- residual activity [16]: 91%
- residual activity [17]: 97%
- residual activity [18]: 62%
- residual activity [19]: 100%
- residual activity [20]: 100%
- residual activity [21]: 100%
- residual activity [22]: 100%
- residual activity [23]: 81%
- residual activity [24]: 83%
- residual activity [25]: 100%
- residual activity [26]: 96%
- inhibition [27]: -4.95%
- residual activity [28]: 85%
- residual activity [29]: 75%
- residual activity [30]: 100%
- residual activity [31]: 100%
- residual activity [32]: 55%
- residual activity [33]: 100%
- residual activity [34]: 97%
- residual activity [35]: 100%
- residual activity [36]: 90%
- residual activity [37]: 100%
- residual activity [38]: 61%
- residual activity [39]: 98%
- residual activity [40]: 63%
- residual activity [41]: 79%
- residual activity [42]: 100%
- residual activity [43]: 100%
- residual activity [44]: 100%
- residual activity [45]: 99%
